Consider four compounds from patent publication US8853282B1, “Topical liquid insecticide compositions” (priority 2014, dated 2014).

Series [1] is described as follows: Solubility in aprotic polar solvents. The class given is physicochemical. An excerpt:
Dinotefuran is a hydrophilic compound that will dissolve in water (approx. 40 g/L). While dinotefuran is most preferred, nitenpyram is highly hydrophilic and could be used in formulations where higher levels of neo-nicotinoid would be desirable. The ether pyrethroid etofenprox will dissolve in some aprotic polar solvents to provide up to 40-60 weight percent while most ester pyrethroids had little solubility. Other ether pyrethroids may be useful provided they have insecticidal activity and may be desirable because of cost and relatively low hydrophobicity.

The subject of a further series is ticks. The conditions noted are these: cited from earlier work.
A further series concerns felines. The following applies: cited from earlier work.
In a further series the test system is fleas. The conditions noted are these: cited from earlier work.
The conditions of series [2]: cited from earlier work.

Molecules are shown by their SMILES. Values after ≈ are worked out from the molar mass of the structure shown.

Take `CCOc1ccc(C(C)(C)COCc2cccc(Oc3ccccc3)c2)cc1` [Etofenprox]: in series [1], the “dissolves in some aprotic polar solvents” value is reported as 40-60 weight percent. Further, the kill of ticks entry in the series with ticks was “will kill both fleas and ticks”. Further, in the series with felines, the toxicity to felines result is “not toxic to felines”. Besides, the kill of fleas result in the series with fleas was “will kill both fleas and ticks”. Besides, in series [2], the solubility in water is 0.001 mg/mL (≈ 2.66 µM).

For the compound `CN/C(=N/CC1CCOC1)N[N+](=O)[O-]` (centres unmarked) [Dinotefuran], the kill of ticks entry with ticks was “not ticks”. Moreover, the kill of fleas result with fleas is “will kill fleas”. In addition, in series [2], the “Water Solubility” value was 39.83 mg/mL and the dissolve in water result is “approx. 40 g/L”.

As to `C/C(=N\C#N)N(C)Cc1ccc(Cl)nc1` [Acetamiprid], the “Water Solubility” value in series [2] was 2.95 mg/mL.

In the case of `CCN(Cc1ccc(Cl)nc1)/C(=C/[N+](=O)[O-])NC` [Nitenpyram], the “Water Solubility” value in series [2] was 840 mg/mL.
